Measurements taken from patent US20070219186A1, “Pyrazolo[1,5-A]pyrimidine derivatives and methods of use thereof” (priority 2006, published 2007).
Where two headings read alike, the source gives them in different places.

Molecular target: T1, human B-Raf (Homo sapiens, UniProt P15056)
T1 construct: Flag; GST; made in house; host or cells: Sf9 insect cells (B-Raf); E. coli (MEK1-GST)
Test: B-Raf Kinase to MEK1 ELISA
Format: biochemical
Conditions: for IC50: median, cpd concentrations from 10 μM to 30 nM in half log dilutions, read-out: Median IC50; for inhibition at 10 µM: read-out: % Inhib./10 uM
Description: TITLE: B-Raf Kinase to MEK1 ELISA
PURPOSE: To discover B-Raf Kinase inhibitors that can inhibit growth of tumor cells which contain oncogenic forms of Receptor Tyrosine Kinases or K-Ras, or B-Raf kinase.
Reagents: Flag/GST-tagged recombinant human B-Raf produced in Sf9 insect cells, human non-active Mek-1-GST (recombinant protein produced in E. coli); and a phospho-MEK1 specific poly-clonal Ab from Cell Signaling Technology (cat. #9121).
B-Raf1 Kinase Assay Procedure:
B-Raf-1 is used to phosphorylate GST-MEK1. MEK1 phosphorylation is measured by a phospho-specific antibody (from Cell Signaling Technology, cat. #9121) that detects phosphorylation of two serine residues at positions 217 and 221 on MEK1.
B-Raf Assay Stock Solutions:
1. Assay Dilution Buffer (ADB): 20 mM MOPS, pH 7.2, 25 mM β-glycerol phosphate, 5 mM EGTA, 1 mM sodium orthovanadate, 1 mM dithiothreitol.
2. Magnesium/ATP Cocktail: 200 μM cold ATP and 40 mM magnesium chloride in ADB.
3. Active Kinase: Active B-Raf: used at ˜20 ng per assay point.
4. Non-active GST-MEK1: Use at 100 nM (50 nM final).
6. Anti-GST Ab (Pharmacia)
7. Anti-rabbit Ab/Europium conjugate (Wallac)
1. Add 25 μl of ADB containing B-Raf and Mek per assay (i.e. per well of a 96 well plate)
2. Add 25 μl of 0.2 mM ATP and 40 mM magnesium chloride in ADB.
3. Incubate for 60 minutes at RT in a shaking incubator.
4. Transfer this mixture to an anti-GST Ab coated 96 well plate (Nunc Immunosorb plates coated o/n with a-GST.
5. Incubate for 60 minutes at 30° C. in a shaking incubator
6. Wash 3× with TBST, add Anti-Phospho MEK1 (1:1000)
7. Incubate for 60 minutes at 30° C. in a shaking incubator
8. Wash 3× with TBST, add Anti-rabbit Ab/Europium conjugate (Wallac) (1:500)
9. Incubate for 60 minutes at 30° C. in a shaking incubator
10. Add 100 ul of Wallac Delfia Enhancement Solution and shake for 10 minutes.
11. Read plates in Wallac Victor model Plate Reader.
12. Collect data analyze in Excel for single point and IC50 determinations.
Typically Raf-1 assay is run at cpd concentrations from 10 μM to 30 nM in half log dilutions. (% inhibition is determined for each cpd concentration)

T1 sequence (P15056 whole entry): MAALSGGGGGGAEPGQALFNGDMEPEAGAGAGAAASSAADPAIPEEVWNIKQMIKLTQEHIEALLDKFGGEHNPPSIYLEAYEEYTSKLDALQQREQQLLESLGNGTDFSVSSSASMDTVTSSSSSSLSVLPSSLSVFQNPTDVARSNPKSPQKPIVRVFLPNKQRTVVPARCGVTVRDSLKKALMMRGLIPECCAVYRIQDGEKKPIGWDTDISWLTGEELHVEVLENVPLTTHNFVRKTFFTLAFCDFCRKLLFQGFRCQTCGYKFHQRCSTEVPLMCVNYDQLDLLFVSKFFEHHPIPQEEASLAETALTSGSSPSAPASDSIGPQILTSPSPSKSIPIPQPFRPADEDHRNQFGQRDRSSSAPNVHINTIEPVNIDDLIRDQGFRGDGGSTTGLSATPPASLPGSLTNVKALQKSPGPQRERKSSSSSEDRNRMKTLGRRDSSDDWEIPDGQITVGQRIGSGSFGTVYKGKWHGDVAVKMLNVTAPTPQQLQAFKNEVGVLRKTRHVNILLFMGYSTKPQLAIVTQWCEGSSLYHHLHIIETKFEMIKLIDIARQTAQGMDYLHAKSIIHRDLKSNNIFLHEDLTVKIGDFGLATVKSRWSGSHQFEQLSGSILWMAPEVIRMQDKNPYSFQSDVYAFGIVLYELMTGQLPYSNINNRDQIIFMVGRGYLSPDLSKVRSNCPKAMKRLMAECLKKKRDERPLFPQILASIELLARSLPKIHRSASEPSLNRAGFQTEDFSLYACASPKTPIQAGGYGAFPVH

Row | IC50 [µM] | % Inhib./10 uM (single point assay, 10 uM) [%] | inhibition at 10 µM [%] | inhibition at 10 µM (single point assay, 10 uM) [%] | Compound
1 | > 10 | 48 | – | – | 4-[7-(3-{[3-(trifluoromethyl)benzoyl]amino}phenyl)pyrazolo[1,5-a]pyrimidin-2-yl]benzyl acetate [Example 142]
2 | 0.72 | – | 66 | – | CCOC(=O)c1cnn2c(-c3cccc(NC(=O)c4cccc(C(F)(F)F)c4)c3)ccnc12 [Example 1, Pyrazolo[1,5-a]pyrimidine-3-carboxylic acid, 7-[3-[[3-(trifluoromethyl)-benzoyl]amino]phenyl]-, ethyl ester]
3 | 17 | – | 84 | – | CCOC(=O)c1cnn2c(-c3cccc(NC(=O)c4ccc(F)c(C(F)(F)F)c4)c3)ccnc12 [Example 2, ethyl 7-(3-{[4-fluoro-3-(trifluoromethyl)benzoyl]amino}phenyl)pyrazolo[1,5-a]pyrimidine-3-carboxylate]
4 | > 20 | – | 4 | – | CCOC(=O)c1cnn2c(-c3cccc(NC(=O)c4ccccc4)c3)ccnc12 [Example 3, Pyrazolo[1,5-a]pyrimidine-3-carboxylic acid, 7-[3-(benzoylamino)phenyl]-, ethyl ester]
5 | > 10 | – | 4 | – | CCOC(=O)c1cnn2c(-c3cccc(NC(=O)c4cccc(Br)c4)c3)ccnc12 [Example 4, ethyl 7-{3-[(3-bromobenzoyl)amino]phenyl}pyrazolo[1,5-a]pyrimidine-3-carboxylate]
6 | > 20 | – | 24 | – | CCOC(=O)c1cnn2c(-c3cccc(NC(=O)c4cc5ccccc5s4)c3)ccnc12 [Example 5, ethyl 7-{3-[(1-benzothien-2-ylcarbonyl)amino]phenyl}pyrazolo[1,5-a]pyrimidine-3-carboxylate]
7 | > 20 | – | 38 | – | CCOC(=O)c1cnn2c(-c3cccc(NC(=O)c4ccc(Cl)cc4)c3)ccnc12 [Example 6, ethyl 7-{3-[(4-chlorobenzoyl)amino]phenyl}pyrazolo[1,5-a]pyrimidine-3-carboxylate]
8 | 1.43 | – | – | 67 | CCOC(=O)c1cnn2c(-c3cccc(NC(=O)c4cccc(OC(F)(F)F)c4)c3)ccnc12 [Example 7, ethyl 7-(3-{[3-(trifluoromethoxy)benzoyl]amino}phenyl)pyrazolo[1,5-a]pyrimidine-3-carboxylate]
9 | > 10 | – | – | 28 | CCOC(=O)c1cnn2c(-c3cccc(NC(=O)c4cccc(OC)c4)c3)ccnc12 [Example 8, ethyl 7-{3-[(3-methoxybenzoyl)amino]phenyl}pyrazolo[1,5-a]pyrimidine-3-carboxylate]
10 | > 20 | – | 20 | – | CCOC(=O)c1cnn2c(-c3cccc(NC(=O)c4ccc(C(F)(F)F)c(F)c4)c3)ccnc12 [Example 9, ethyl 7-(3-{[3-fluoro-4-(trifluoromethyl)benzoyl]amino}phenyl)pyrazolo[1,5-a]pyrimidine-3-carboxylate]
11 | > 10 | – | 27 | – | CCOC(=O)c1cnn2c(-c3cccc(NC(=O)c4ccc(C(F)(F)F)cc4)c3)ccnc12 [Example 10, ethyl 7-(3-{[4-(trifluoromethyl)benzoyl]amino}phenyl)pyrazolo[1,5-a]pyrimidine-3-carboxylate]
12 | 0.3 | – | – | 93 | CCOC(=O)c1cnn2c(-c3cccc(NC(=O)Nc4ccc(Cl)c(C(F)(F)F)c4)c3)ccnc12 [Example 11, ethyl 7-{3-[({[4-chloro-3-(trifluoromethyl)phenyl]amino}carbonyl)amino]phenyl}pyrazolo[1,5-a]pyrimidine-3-carboxylate]
13 | > 20 | – | 7 | – | CCOC(=O)c1cnn2c(-c3cccc(NS(=O)(=O)c4cccc(C(F)(F)F)c4)c3)ccnc12 [Example 12, ethyl 7-[3-({[3-(trifluoromethyl)phenyl]sulfonyl}amino)phenyl]pyrazolo[1,5-a]pyrimidine-3-carboxylate]
14 | > 20 | – | 27 | – | CCOC(=O)c1cnn2c(-c3cccc(NC(=O)c4cccc(C#N)c4)c3)ccnc12 [Example 13, ethyl 7-{3-[(3-cyanobenzoyl)amino]phenyl}pyrazolo[1,5-a]pyrimidine-3-carboxylate]
15 | > 10 | – | 0 | – | CCOC(=O)c1cnn2c(-c3cccc(NC(=O)Nc4ccc(Cl)cc4Cl)c3)ccnc12 [Example 14, ethyl 7-[3-({[(2,4-dichlorophenyl)amino]carbonyl}amino)phenyl]pyrazolo[1,5-a]pyrimidine-3-carboxylate]
16 | 3.78 | – | 31 | – | CCOC(=O)c1cnn2c(-c3cccc(NC(=O)Nc4cc(C(F)(F)F)cc(C(F)(F)F)c4)c3)ccnc12 [Example 16, ethyl 7-{3-[({[3,5-bis(trifluoromethyl)phenyl]amino}carbonyl)amino]phenyl}pyrazolo[1,5-a]pyrimidine-3-carboxylate]
17 | > 10 | – | 30 | – | CCOC(=O)c1cnn2c(-c3cccc(NC(=O)Nc4cc(Cl)cc(Cl)c4)c3)ccnc12 [Example 17, ethyl 7-[3-({[(3,5-dichlorophenyl)amino]carbonyl}amino)phenyl]pyrazolo[1,5-a]pyrimidine-3-carboxylate]
18 | > 10 | – | 0 | – | CCOC(=O)c1cnn2c(-c3cccc(NC(=O)Nc4ccc(SC)cc4)c3)ccnc12 [Example 18, ethyl 7-{3-[({[4-(methylthio)phenyl]amino}carbonyl)amino]phenyl}pyrazolo[1,5-a]pyrimidine-3-carboxylate]
19 | > 10 | – | 0 | – | CCOC(=O)c1cnn2c(-c3cccc(NC(=O)Nc4ccc(C(C)=O)cc4)c3)ccnc12 [Example 19, ethyl 7-[3-({[(4-acetylphenyl)amino]carbonyl}amino)phenyl]pyrazolo[1,5-a]pyrimidine-3-carboxylate]
20 | > 10 | – | 30 | – | CCOC(=O)c1cnn2c(-c3cccc(NC(=O)Nc4ccc(C(C)C)cc4)c3)ccnc12 [Example 20, ethyl 7-[3-({[(4-isopropylphenyl)amino]carbonyl}amino)phenyl]pyrazolo[1,5-a]pyrimidine-3-carboxylate]
21 | 2.3 | – | 58 | – | CCOC(=O)c1cnn2c(-c3cccc(NC(=O)Nc4ccc5ccccc5c4)c3)ccnc12 [Example 21, ethyl 7-(3-{[(2-naphthylamino)carbonyl]amino}phenyl)pyrazolo[1,5-a]pyrimidine-3-carboxylate]
22 | > 10 | – | 34 | – | CCOC(=O)c1cnn2c(-c3cccc(NC(=O)Nc4c(C)cc(C)cc4C)c3)ccnc12 [Example 22, ethyl 7-(3-{[(mesitylamino)carbonyl]amino}phenyl)pyrazolo[1,5-a]pyrimidine-3-carboxylate]
23 | > 10 | – | 20 | – | CCOC(=O)c1cnn2c(-c3cccc(NC(=O)Nc4ccc(OC(F)(F)F)cc4)c3)ccnc12 [Example 23, ethyl 7-{3-[({[4-(trifluoromethoxy)phenyl]amino}carbonyl)amino]phenyl}pyrazolo[1,5-a]pyrimidine-3-carboxylate]
24 | > 10 | – | 11 | – | CCOC(=O)c1cnn2c(-c3cccc(NC(=O)Nc4ccc(SC(F)(F)F)cc4)c3)ccnc12 [Example 24, ethyl 7-(3-{[({4-[(trifluoromethyl)thio]phenyl}amino)carbonyl]amino}phenyl)pyrazolo[1,5-a]pyrimidine-3-carboxylate]
25 | 0.6 | – | 76 | – | CCOC(=O)c1cnn2c(-c3cccc(NC(=O)Nc4ccc(F)c(Cl)c4)c3)ccnc12 [Example 25, ethyl 7-[3-({[(3-chloro-4-fluorophenyl)amino]carbonyl}amino)phenyl]pyrazolo[1,5-a]pyrimidine-3-carboxylate]
26 | 0.5 | – | – | 76 | CCOC(=O)c1cnn2c(-c3cccc(NC(=O)c4ccc(C)c(C(F)(F)F)c4)c3)ccnc12 [Example 26, ethyl 7-(3-{[4-methyl-3-(trifluoromethyl)benzoyl]amino}phenyl)pyrazolo[1,5-a]pyrimidine-3-carboxylate]
27 | > 10 | – | 12 | – | CCOC(=O)c1cnn2c(-c3cccc(NC(=O)c4cc(C(F)(F)F)ccc4Cl)c3)ccnc12 [Example 27, ethyl 7-(3-{[2-chloro-5-(trifluoromethyl)benzoyl]amino}phenyl)pyrazolo[1,5-a]pyrimidine-3-carboxylate]
